Where a SMILES comes first, the peptide text is derived from it.
Target: T1, Interleukin-23 receptor (Homo sapiens, UniProt Q5VWK5)
T1 sequence (Q5VWK5 whole entry): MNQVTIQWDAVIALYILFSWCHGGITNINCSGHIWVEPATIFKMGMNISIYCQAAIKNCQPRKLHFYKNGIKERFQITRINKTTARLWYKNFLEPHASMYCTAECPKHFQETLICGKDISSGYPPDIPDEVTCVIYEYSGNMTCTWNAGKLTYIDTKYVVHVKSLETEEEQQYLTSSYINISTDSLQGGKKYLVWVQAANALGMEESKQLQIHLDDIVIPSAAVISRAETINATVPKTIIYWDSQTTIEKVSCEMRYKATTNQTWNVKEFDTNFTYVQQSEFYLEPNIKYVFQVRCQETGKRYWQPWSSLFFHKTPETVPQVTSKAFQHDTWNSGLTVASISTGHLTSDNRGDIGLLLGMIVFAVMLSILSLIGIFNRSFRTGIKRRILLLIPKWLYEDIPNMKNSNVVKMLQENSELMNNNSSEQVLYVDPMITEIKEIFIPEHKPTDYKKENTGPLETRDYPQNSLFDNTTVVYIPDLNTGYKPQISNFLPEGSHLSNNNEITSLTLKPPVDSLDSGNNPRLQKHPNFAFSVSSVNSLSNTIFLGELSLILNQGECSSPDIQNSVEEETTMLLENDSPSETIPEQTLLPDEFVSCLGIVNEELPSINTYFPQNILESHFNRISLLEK
Experiment: Inhibition of interleukin-23 binding to human interleukin-23 receptor incubated for 2 hrs by competitive binding ELISA

| SMILES | IC50 [nM] |
| --- | --- |
| CC(=O)N[C@@H](CS)C(=O)N[C@@H](C)C(=O)N[C@@H](CC(=O)O)C(=O)N[C@@H](Cc1c[nH]c2ccccc12)C(=O)N[C@H](C(=O)N[C@@H](CS)C(=O)N[C@@H](Cc1ccc(O)cc1)C(=O)N[C@@H](Cc1c[nH]c2ccccc12)C(=O)N[C@@H](Cc1cnc[nH]1)C(=O)N[C@H](C(=O)N[C@@H](Cc1ccccc1)C(=O)NCC(=O)N[C@@H](C)C(=O)N[C@@H](C)C(=O)N[C@H](CCCCN)C(=O)O)[C@@H](C)O)C(C)C | < 500 |
| CCCCCCCCCCCCCCCC(=O)NCCCC[C@H](NC(=O)[C@H](Cc1c[nH]c2ccccc12)NC(=O)[C@@H](NC(=O)[C@H](CCC(N)=O)NC(=O)[C@H](CS)NC(C)=O)[C@@H](C)O)C(=O)N[C@@H](CS)C(=O)N[C@@H](Cc1ccc(O)cc1)C(=O)N[C@@H](Cc1c[nH]c2ccccc12)C(=O)N[C@@H](CC(C)C)C(=O)N[C@@H](CCC(=O)O)C(=O)N[C@@H](CC(N)=O)C(=O)NCC(N)=O | 30000 |
| CC(=O)NCCCC[C@H](NC(=O)[C@](C)(CCCCN)NC(=O)[C@H](Cc1ccc2ccccc2c1)NC(=O)[C@H](Cc1ccc(-c2ccccc2)cc1)NC(=O)[C@@H](NC(=O)[C@H](CCC(N)=O)NC(=O)[C@H](Cc1c[nH]c2ccccc12)NC(=O)[C@@H](NC(=O)[C@H](CCC(N)=O)NC(=O)[C@@H](NC(C)=O)C(C)(C)S)[C@@H](C)O)C(C)(C)S)C(=O)N[C@@H](CC(N)=O)C(=O)NCC(N)=O | > 10000 |
| CC(=O)N[C@@H](CS)C(=O)N[C@@H](CCC(N)=O)C(=O)N[C@H](C(=O)N[C@@H](Cc1c[nH]c2ccccc12)C(=O)N[C@@H](CCC(N)=O)C(=O)N[C@@H](CS)C(=O)N[C@@H](CCc1ccc(O)cc1)C(=O)N[C@@H](Cc1c[nH]c2ccccc12)C(=O)N[C@@H](CCC(C)C)C(=O)N[C@@H](CCC(=O)O)C(=O)N[C@@H](CC(N)=O)C(=O)NCC(N)=O)[C@@H](C)O | 6000 |
| C[C@@H](O)[C@H](NC(=O)[C@@H](NC(=O)[C@@H](N)CS)[C@@H](C)O)C(=O)N[C@@H](Cc1c[nH]c2ccccc12)C(=O)N[C@@H](CCCCN)C(=O)N[C@@H](CS)C(=O)N[C@@H](Cc1ccc(O)cc1)C(=O)N[C@@H](Cc1c[nH]c2ccccc12)C(=O)N[C@@H](Cc1cnc[nH]1)C(=O)N[C@@H](CCC(N)=O)C(=O)N[C@@H](Cc1ccc(O)cc1)C(=O)NCC(N)=O (H-CTTWKCYWHQYG-NH2) | 500 to 1000 |
| CC(=O)N[C@@H](CS)C(=O)N[C@@H](CCC(N)=O)C(=O)N[C@H](C(=O)N[C@@H](Cc1c[nH]c2ccccc12)C(=O)N[C@@H](CCC(N)=O)C(=O)N[C@@H](CS)C(=O)N[C@@H](Cc1ccc(O)cc1)C(=O)N[C@@H](Cc1c[nH]c2ccccc12)C(=O)N[C@@H](CCCNC(=N)N)C(=O)N(C)[C@@H](CCCNC(=N)N)C(=O)N[C@@H](CC(N)=O)C(=O)NCC(=O)NCCOCC(=O)N[C@H](CCCCN)C(N)=O)[C@@H](C)O | > 1000 |
| CC(=O)N[C@@H](CS)C(=O)N[C@@H](C)C(=O)N[C@@H](CC(=O)O)C(=O)N[C@@H](Cc1c[nH]c2ccccc12)C(=O)N[C@H](C(=O)N[C@@H](CS)C(=O)N[C@@H](Cc1ccc(O)cc1)C(=O)N[C@@H](Cc1c[nH]c2ccccc12)C(=O)N[C@@H](Cc1cnc[nH]1)C(=O)N[C@H](C(=O)N[C@@H](Cc1ccccc1)C(=O)NCC(=O)NCCC(=O)N[C@H](CCCCNC(=O)COCC(=O)NCCCC[C@@H](NC(=O)CCNC(=O)CNC(=O)[C@H](Cc1ccccc1)NC(=O)[C@@H](NC(=O)[C@H](Cc1cnc[nH]1)NC(=O)[C@H](Cc1c[nH]c2ccccc12)NC(=O)[C@H](Cc1ccc(O)cc1)NC(=O)[C@H](CS)NC(=O)[C@@H](NC(=O)[C@H](Cc1c[nH]c2ccccc12)NC(=O)[C@H](CC(=O)O)NC(=O)[C@H](C)NC(=O)[C@H](CS)NC(C)=O)C(C)C)[C@@H](C)O)C(=O)O)C(=O)O)[C@@H](C)O)C(C)C | 25 to 100 |
| CC(=O)N[C@@H](CS)C(=O)N[C@@H](CCC(N)=O)C(=O)N[C@H](C(=O)N[C@@H](Cc1c[nH]c2ccccc12)C(=O)N[C@@H](CCC(N)=O)C(=O)N[C@@H](CS)C(=O)N[C@@H](Cc1ccc(O)cc1)C(=O)N[C@@H](Cc1c[nH]c2ccccc12)C(=O)N[C@@H](CCCNC(=N)N)C(=O)N[C@H](CCC(=O)O)C(=O)N[C@@H](CC(N)=O)C(=O)NCC(=O)NCCOCC(=O)N[C@H](CCCCN)C(N)=O)[C@@H](C)O | > 1000 |
| CSCC[C@H](NC(=O)[C@@H](N)CS)C(=O)N[C@H](C(=O)N[C@@H](Cc1c[nH]c2ccccc12)C(=O)N[C@@H](CCC(N)=O)C(=O)N[C@@H](CS)C(=O)N[C@@H](Cc1ccc(O)cc1)C(=O)N[C@@H](Cc1c[nH]c2ccccc12)C(=O)N[C@@H](CC(C)C)C(=O)N[C@@H](Cc1ccc(O)cc1)C(=O)NCC(=O)N[C@@H](CCCNC(=N)N)C(=O)NCCOCC(=O)N[C@H](CCCCN)C(N)=O)[C@@H](C)O | > 30000 |
| CC(C)[C@H](NC(=O)[C@@H]1Cc2ccccc2CN1C(=O)[C@H](CC(=O)O)NC(=O)[C@H](C)NC(=O)[C@@H](N)CS)C(=O)N[C@@H](CS)C(=O)N[C@@H](Cc1ccc(O)cc1)C(=O)N[C@@H](Cc1c[nH]c2ccccc12)C(=O)N[C@@H](Cc1cnc[nH]1)C(=O)N[C@H](C(=O)N[C@@H](Cc1ccccc1)C(=O)NCC(N)=O)[C@@H](C)O | > 1000 |
| CC(=O)N[C@@H](CS)C(=O)N[C@@H](CCC(N)=O)C(=O)N[C@H](C(=O)N[C@@H](Cc1c[nH]c2ccccc12)C(=O)N[C@@H](CCC(N)=O)C(=O)N[C@@H](CS)C(=O)N[C@@H](Cc1ccc(O)cc1)C(=O)N[C@@H](Cc1c[nH]c2ccccc12)C(=O)N[C@H](CC(C)C)C(=O)N[C@@H](CCC(=O)O)C(=O)N[C@@H](CC(N)=O)C(=O)NCC(N)=O)[C@@H](C)O | 319 |
| CC(=O)N[C@@H](CS)C(=O)N[C@@H](C)C(=O)N[C@@H](CC(=O)O)C(=O)N[C@@H](Cc1c[nH]c2ccccc12)C(=O)N[C@H](C(=O)N[C@@H](CS)C(=O)N[C@@H](Cc1ccc(O)cc1)C(=O)N[C@@H](Cc1c[nH]c2ccccc12)C(=O)N[C@@H](Cc1cnc[nH]1)C(=O)N[C@H](C(=O)N[C@@H](Cc1ccccc1)C(=O)NCC(=O)N1CC[C@H]1C(=O)N[C@H](CCCCN)C(=O)O)[C@@H](C)O)C(C)C | < 500 |
| COc1ccc([C@@H]2NC(=O)[C@H]([C@@H](C)O)NC(=O)[C@H](CCC(N)=O)NC(=O)[C@@H](NC(C)=O)CCSC[C@@H](C(=O)N[C@@H](Cc3ccc(OCCN)cc3)C(=O)N[C@@H](Cc3ccc4ccccc4c3)C(=O)N[C@@](C)(CCCCN)C(=O)N[C@@H](CCC(=O)O)C(=O)N[C@@H](CC(N)=O)C(=O)NCC(N)=O)NC(=O)[C@H](CCC(N)=O)NC2=O)cc1 | > 3000 |
| CC(=O)NCCCC[C@H](NC(=O)[C@](C)(CCCCN)NC(=O)NC(=O)[C@H](Cc1ccc(OCCN)cc1)NC(=O)[C@@H]1CSCC[C@H](NC(C)=O)C(=O)N[C@@H](CCC(N)=O)C(=O)N[C@@H]([C@@H](C)O)C(=O)N[C@@H](Cc2c[nH]c3ccccc23)C(=O)N[C@@H](CCC(N)=O)C(=O)N1)C(=O)N[C@@H](CC(N)=O)C(=O)NCC(N)=O | > 3000 |
| CC(=O)NC1C/C=C\CCC(C(=O)N[C@@H](Cc2ccc(O)cc2)C(=O)N[C@@H](Cc2c[nH]c3ccccc23)C(=O)N[C@@H](CCCNC(=N)N)C(=O)N[C@@H](CCCCN)C(=O)N[C@@H](Cc2ccccc2)C(=O)NCC(=O)NCCOCC(=O)N[C@H](CCCCN)C(N)=O)NC(=O)[C@H](CCC(N)=O)NC(=O)[C@H](Cc2c[nH]c3ccccc23)NC(=O)[C@H]([C@@H](C)O)NC(=O)[C@H](CCCNC(=N)N)NC1=O (some centres undefined) | 100 to 1000 |
| CC(=O)N[C@@H](CS)C(=O)N[C@@H](C)C(=O)N[C@@H](CC(=O)O)C(=O)N[C@@H](Cc1c[nH]c2ccccc12)C(=O)N[C@H](C(=O)N[C@@H](CS)C(=O)N[C@@H](Cc1ccc(O)cc1)C(=O)N[C@@H](Cc1c[nH]c2ccccc12)C(=O)N[C@@H](Cc1cnc[nH]1)C(=O)N[C@@H](CCCCNC(=O)COCC(=O)NCCCC[C@H](NC(=O)[C@H](Cc1cnc[nH]1)NC(=O)[C@H](Cc1c[nH]c2ccccc12)NC(=O)[C@H](Cc1ccc(O)cc1)NC(=O)[C@H](CS)NC(=O)[C@@H](NC(=O)[C@H](Cc1c[nH]c2ccccc12)NC(=O)[C@H](CC(=O)O)NC(=O)[C@H](C)NC(=O)[C@H](CS)NC(C)=O)C(C)C)C(=O)N[C@@H](Cc1ccccc1)C(=O)NCC(=O)O)C(=O)N[C@@H](Cc1ccccc1)C(=O)NCC(=O)O)C(C)C | > 10000 |
| N=C(N)NCCC[C@H](NC(=O)[C@H](Cc1c[nH]c2ccccc12)NC(=O)[C@H](Cc1ccc(O)cc1)NC(=O)[C@@H]1CSCCCC(=O)N[C@@H](CCC(N)=O)C(=O)N[C@@H](CC(=O)O)C(=O)N[C@@H](Cc2c[nH]c3ccccc23)C(=O)N[C@@H](CCC(N)=O)C(=O)N1)C(=O)N[C@@H](CCC(=O)O)C(=O)N[C@@H](CC(N)=O)C(=O)NCC(=O)NCCOCC(=O)N[C@H](CCCCN)C(N)=O | 6000 |
| CC(=O)N[C@@H](CS)C(=O)N[C@@H](CCC(N)=O)C(=O)N[C@H](C(=O)N[C@@H](Cc1c[nH]c2ccccc12)C(=O)N[C@@H](CCC(N)=O)C(=O)N[C@@H](CS)C(=O)N[C@H](Cc1ccc(O)cc1)C(=O)N[C@@H](Cc1c[nH]c2ccccc12)C(=O)N[C@@H](CCC(C)C)C(=O)N[C@@H](CCC(=O)O)C(=O)N[C@@H](CC(N)=O)C(=O)NCC(N)=O)[C@@H](C)O | > 30000 |
| CC(=O)N[C@@H](CS)C(=O)N[C@@H](CCC(N)=O)C(=O)N[C@H](C(=O)N[C@@H](Cc1c[nH]c2ccccc12)C(=O)N[C@@H](CCC(N)=O)C(=O)N[C@@H](CS)C(=O)N[C@@H](Cc1ccc(O)cc1)C(=O)N[C@@H](Cc1c[nH]c2ccccc12)C(=O)N[C@@H](CC(C)C)C(=O)N[C@@H](CCC(=O)O)C(=O)N[C@@H](CC(N)=O)C(=O)NCC(N)=O)[C@@H](C)O | < 500 |

Reference: ChEMBL document CHEMBL4417631, “Oral peptide inhibitors of interleukin-23 receptor and their use to treat inflammatory bowel diseases” (2017)
